# Measured values from ChEMBL document CHEMBL1127423, “An evaluation of the antirhinoviral activity of acetylfuran replacements for 3-methylisoxazoles. Are 2-acetylfurans bioisosteres for 3-methylisoxazoles?” (J Med Chem, 1994).
# Activity calls are given as the source filed them. The rule behind the calls is not given here.
# Tests used:
# Human rhinovirus sp. [1] = test: Antirhinoviral activity calculated for mean of fifteen serotypes (HRV-1A, -1B, -2, -6, -14, -15, -21, -22, -25, -30, -41, --50, -67, -86, -89); assay type: functional
# Human rhinovirus sp. [2] = test: Compound was tested in vitro for minimal inhibitory constant against 80% of fifteen human rhinovirus serotypes
# Human rhinovirus sp. [3] = test: Tested for in vitro antiviral activity against Human rhinovirus (HRV)-14; assay type: functional
# [4] = Partition coefficient (logP) (HPLC); assay type: physicochemical; conditions: octanol/water
# Human rhinovirus sp. [5] = test: tested for minimal inhibitory concentration against Human rhinovirus serotype 14 by plaque reduction assay; assay type: functional
# Human rhinovirus sp. [6] = test: tested for minimal inhibitory concentration against Human rhinovirus serotype 21 by plaque reduction assay; assay type: functional
# Human rhinovirus sp. [7] = test: tested for minimal inhibitory concentration against Human rhinovirus serotype 6 by plaque reduction assay; assay type: functional
# Human rhinovirus sp. [8] = test: tested for minimal inhibitory concentration against Human rhinovirus serotype 67 by plaque reduction assay; assay type: functional
# Human rhinovirus sp. [9] = test: tested for minimal inhibitory concentration against Human rhinovirus serotype 30 by plaque reduction assay; assay type: functional
# Human rhinovirus sp. [10] = test: tested for minimal inhibitory concentration against Human rhinovirus serotype 86 by plaque reduction assay; assay type: functional
# Human rhinovirus sp. [11] = test: tested for minimal inhibitory concentration against Human rhinovirus serotype 89 by plaque reduction assay; assay type: functional
# Human rhinovirus sp. [12] = test: tested for minimal inhibitory concentration against Human rhinovirus serotype 41 by plaque reduction assay; assay type: functional
# Human rhinovirus sp. [13] = test: tested for minimal inhibitory concentration against Human rhinovirus serotype 50 by plaque reduction assay; assay type: functional
# Human rhinovirus sp. [14] = test: tested for minimal inhibitory concentration against Human rhinovirus serotype 1B by plaque reduction assay; assay type: functional
# Human rhinovirus sp. [15] = test: tested for minimal inhibitory concentration against Human rhinovirus serotype 15 by plaque reduction assay; assay type: functional
# Human rhinovirus sp. [16] = test: tested for minimal inhibitory concentration against Human rhinovirus serotype 25 by plaque reduction assay; assay type: functional
# Human rhinovirus sp. [17] = test: tested for minimal inhibitory concentration against Human rhinovirus serotype 22 by plaque reduction assay; assay type: functional
# Human rhinovirus sp. [18] = test: tested for minimal inhibitory concentration against Human rhinovirus serotype 2 by plaque reduction assay; assay type: functional
# Human rhinovirus sp. [19] = test: tested for minimal inhibitory concentration against Human rhinovirus serotype 1A by plaque reduction assay; assay type: functional
# Human rhinovirus sp. [20] = test: Antirhinoviral activity calculated for mean of fifteen serotypes (HRV-1A, -1B, -2, -6, -14, -15, -21, -22, -25, -30, -41, --50, -67, -86, -89); inactive against HRV-1A, -6, -14,-67; assay type: functional, organism-based
# Human rhinovirus sp. [21] = test: Compound was tested in vitro for minimal inhibitory constant against HRV-14; inactive against HRV-1A, -6, -14,-67; assay type: functional, organism-based
# Human rhinovirus sp. [22] = test: Tested for in vitro antiviral activity against Human rhinovirus (HRV)-14; inactive against HRV-1A, -6, -14,-67; assay type: functional, organism-based
# Human rhinovirus sp. [23] = test: Compound was tested in vitro for minimal inhibitory constant against HRV-14; IA= Inactive; assay type: functional, organism-based
# Human rhinovirus sp. [24] = test: tested for in vitro antiviral activity against Human rhinovirus (HRV)-14; assay type: functional
# Human rhinovirus sp. [25] = test: Tested for minimal inhibitory concentration against Human rhinovirus serotype 50 by plaque reduction assay; assay type: functional
# Human rhinovirus sp. [26] = test: Tested for minimal inhibitory concentration against Human rhinovirus serotype 67 by plaque reduction assay; assay type: functional
# Human rhinovirus sp. [27] = test: Tested for minimal inhibitory concentration against Human rhinovirus serotype 1A by plaque reduction assay; assay type: functional
# Human rhinovirus sp. [28] = test: Tested for minimal inhibitory concentration against Human rhinovirus serotype 1B by plaque reduction assay; inactive; assay type: functional, organism-based
# Human rhinovirus sp. [29] = test: Tested for minimal inhibitory concentration against Human rhinovirus serotype 2 by plaque reduction assay; assay type: functional
# Human rhinovirus sp. [30] = test: Tested for minimal inhibitory concentration against Human rhinovirus serotype 30 by plaque reduction assay; assay type: functional
# Human rhinovirus sp. [31] = test: Tested for minimal inhibitory concentration against Human rhinovirus serotype 41 by plaque reduction assay; inactive; assay type: functional, organism-based
# Human rhinovirus sp. [32] = test: Tested for minimal inhibitory concentration against Human rhinovirus serotype 14 by plaque reduction assay; assay type: functional
# Human rhinovirus sp. [33] = test: Tested for minimal inhibitory concentration against Human rhinovirus serotype 86 by plaque reduction assay; assay type: functional
# Human rhinovirus sp. [34] = test: Tested for minimal inhibitory concentration against Human rhinovirus serotype 22 by plaque reduction assay; assay type: functional
# Human rhinovirus sp. [35] = test: Tested for minimal inhibitory concentration against Human rhinovirus serotype 25 by plaque reduction assay; inactive; assay type: functional, organism-based
# Human rhinovirus sp. [36] = test: Tested for minimal inhibitory concentration against Human rhinovirus serotype 6 by plaque reduction assay; assay type: functional
# Human rhinovirus sp. [37] = test: Tested for minimal inhibitory concentration against Human rhinovirus serotype 15 by plaque reduction assay; assay type: functional
# Human rhinovirus sp. [38] = test: Tested for minimal inhibitory concentration against Human rhinovirus serotype 21 by plaque reduction assay; assay type: functional
# Human rhinovirus sp. [39] = test: Tested for minimal inhibitory concentration against Human rhinovirus serotype 89 by plaque reduction assay; assay type: functional
# Human rhinovirus sp. [40] = test: Compound was tested in vitro for minimal inhibitory constant against HRV-14; high capacity tissue culture infectious dose; assay type: functional, organism-based
# Human rhinovirus sp. [41] = test: Antirhinoviral activity calculated for mean of fifteen serotypes (HRV-1A, -1B, -2, -6, -14, -15, -21, -22, -25, -30, -41, --50, -67, -86, -89); inactive against HRV-6,-41,-67,-86; assay type: functional, organism-based
Structure (SMILES),Activity (Human rhinovirus sp. [1]),MIC80 (Human rhinovirus sp. [2]),Activity (Human rhinovirus sp. [3]),logP [4],also measured
CC(=O)c1ccc(CCCCCOc2c(Cl)cc(C3=NCCO3)cc2Cl)o1,0.5 µM,0.7 µM,2 µM,4.6,–
CC(=O)c1ccc(CCCCCOc2c(Br)cc(C3=NCCO3)cc2Br)o1,0.7 µM,0.9 µM,3.3 µM,–,–
CC(=O)c1ccc(CCCCCOc2ccc(C3=NCCO3)cc2)o1,0.9 µM,1 µM,1.1 µM,–,MIC (Human rhinovirus sp. [5]): 1 µM; MIC (Human rhinovirus sp. [6]): 0.4 µM; MIC (Human rhinovirus sp. [7]): 0.3 µM; MIC (Human rhinovirus sp. [8]): 1 µM; MIC (Human rhinovirus sp. [9]): 0.1 µM; MIC (Human rhinovirus sp. [10]): 0.4 µM; MIC (Human rhinovirus sp. [11]): 0.05 µM; MIC (Human rhinovirus sp. [12]): 2.2 µM; MIC (Human rhinovirus sp. [13]): 0.2 µM; MIC (Human rhinovirus sp. [14]): 0.3 µM; MIC (Human rhinovirus sp. [15]): 0.7 µM; MIC (Human rhinovirus sp. [16]): 4.5 µM; MIC (Human rhinovirus sp. [17]): 1.6 µM; MIC (Human rhinovirus sp. [18]): 0.5 µM; MIC (Human rhinovirus sp. [19]): 0.2 µM
Cc1cc(CCCOc2c(C)cc(-c3nnn(C)n3)cc2C)on1,0.5 µM,0.4 µM,1.7 µM,3.2,–
Cc1cc(CCCCCOc2c(Br)cc(C3=NCCO3)cc2Br)on1,0.6 µM,1.4 µM,2 µM,–,–
Cc1ccc(CCCOc2c(C)cc(-c3noc(C)n3)cc2C)o1,–,–,–,–,Activity (Human rhinovirus sp. [20]): inactive; Activity (Human rhinovirus sp. [21]): inactive; Activity (Human rhinovirus sp. [22]): inactive
CC(=O)c1ccc(CCCCCOc2c(C)cc(-c3nnn(C)n3)cc2C)o1,0.6 µM,0.8 µM,1.2 µM,3.7,–
Cc1cc(-c2nnn(C)n2)cc(C)c1OCCCCCc1ccc(C=O)o1,–,–,–,3.5,MIC80 (Human rhinovirus sp. [23]): inactive; Activity (Human rhinovirus sp. [20]): inactive; Activity (Human rhinovirus sp. [24]): 27 µM
Cc1cc(CCCCCOc2c(C)cc(-c3nnn(C)n3)cc2C)on1,0.5 µM,0.6 µM,0.8 µM,3.6,–
Cc1cc(CCCCCOc2c(Cl)cc(C3=NCCO3)cc2Cl)on1 [WIN-54954],0.7 µM,0.9 µM,2.3 µM,4.6,–
Cc1cc(CCCCCOc2ccc(C3=NCCO3)cc2)on1,–,7 µM,0.7 µM,–,Activity (Human rhinovirus sp. [20]): inactive; MIC (Human rhinovirus sp. [25]): 1.5 µM; MIC (Human rhinovirus sp. [26]): 2.4 µM; MIC (Human rhinovirus sp. [27]): 7 µM; MIC (Human rhinovirus sp. [28]): inactive; MIC (Human rhinovirus sp. [29]): 1.1 µM; MIC (Human rhinovirus sp. [30]): 0.3 µM; MIC (Human rhinovirus sp. [31]): inactive; MIC (Human rhinovirus sp. [32]): 0.7 µM; MIC (Human rhinovirus sp. [33]): 0.1 µM; MIC (Human rhinovirus sp. [34]): 0.9 µM; MIC (Human rhinovirus sp. [35]): inactive; MIC (Human rhinovirus sp. [36]): 0.06 µM; MIC (Human rhinovirus sp. [37]): 1.5 µM; MIC (Human rhinovirus sp. [38]): 1.2 µM; MIC (Human rhinovirus sp. [39]): 0.4 µM
CC(=O)c1ccc(CCCOc2c(C)cc(-c3nnn(C)n3)cc2C)o1,0.3 µM,0.5 µM,0.5 µM,3.2,–
CC(=O)c1ccc(CCCOc2c(C)cc(-c3noc(C)n3)cc2C)o1,0.2 µM,0.4 µM,0.5 µM,–,–
Cc1ccc(CCCOc2c(C)cc(-c3nnn(C)n3)cc2C)o1,–,–,30 µM,–,MIC80 (Human rhinovirus sp. [40]): high capacity tissue culture infectious dose; Activity (Human rhinovirus sp. [41]): inactive
Cc1cc(CCCOc2c(C)cc(-c3noc(C)n3)cc2C)on1,0.1 µM,0.2 µM,0.2 µM,–,–
